Results reported in patent US11433040B2, “Methods for modifying endoplasmic reticulum processing of protein” (priority 2017, dated 2022).
Where “and” joins values, the source holds several entries; their conditions need not be identical. Equal values may be shown once.

Assays:
[1] = tested on: G544V-mutant LDL receptor; experiment: Cell-based trafficking assay: restoration of glycosylation/trafficking of mutant LDL receptor in CHO cells; parameters: species or system human; settings: for EC50: CHO cells expressing G544V-mutant LDL receptor, 2 hours at 37° C., value ± standard error, read-out: EC50, acquisition of mutant LDL receptor glycosylation
Description: (§1) T-Rex-CHO-K1 cloned cell lines expressing wild-type and mutant LDL receptor were cultured as described in Sorensen et al. (2006) and Tveten et al. (2007), and according to the manufacturer's protocols (Thermo Fisher Scientific). The expression in CHO cells of G544V-mutant or wildtype LDL receptor protein was induced with 1 μg/mL tetracycline for 24 h prior to experiments with 4-PBA or 4-PBA analogs (Tveten et al. (2007)). To compare pharmacological potency of 4-PBA analogs, cells were incubated with the compounds for 2 hours at 37° C. in 12-well 22 mm plates (Corning Costar #3513). For experiments concerning the extracellular secretion of GRP94 (FIG. 5), the incubations with 4-PBA were extended to 24 hours. Cells were broken in lysis buffer (1% (v/v) Triton X-100, 150 mM NaCl, 10 mM EDTA, 50 mM Tris-HCl pH 7.5) and cleared by centrifugation (15,000 g for 15 minutes). Cellular protein concentration was measured using “Protein Assay Kit II” (Bio-Rad) with bovine serum albumin as standard. Lysates were added to Laemmli sample buffer (New England BioLabs) containing 130 mM dithiothreitol and heated for 15 min at 55° C. Cell medium (containing secreted proteins) was added to Laemmli sample buffer containing 5% β-mercaptoethanol and boiled for 5 min. Samples were run on 4-15% Tris/HCl Criterion gels (Bio-Rad) followed by immunoblotting.
Chemiluminescence signals from western blots for the glycosylated (160 kDa) form of G544V mutant LDL receptor were quantified as a percentage of total LDL receptor protein (glycosylated+unglycosylated bands). Data at high concentrations of 4-PBA analogs, which show inhibition of LDL receptor trafficking, were omitted. Data from individual experiments were normalized (to obtain maximal response=100%), so that data from replicate experiments (n=4-5) could be averaged. Logistic fitting to the dose-response data was carried out with program Ultrafit (Elsevier Biosoft). […] Data from fluorescence polarization titrations (FIGS. 6(E)-6(G)) were analyzed with Ultrafit, and IC50 values were determined from plots using nonlinear curve fitting. […] IC50 values were converted to true affinities, Ki, using the approach of (Nikolovska-Coleska et al., 2004), and these are used in the scatter plot, FIG. 6(H).
A system comprising a CHO (T-Rex-CHO-K1) cell clone expressing the G544V-mutant human LDL receptor under a tetracycline-inducible promoter was used (see General Methods) to measure the packaging of resident proteins and a misfolded mutant LDL receptor into COPII vesicles budded from permeabilized cells. The G544V-mutant human LDL receptor is a naturally occurring transport-defective (class 2) mutant LDL receptor with a point mutation in the luminal β-propeller domain that causes ER trapping with chaperone association. 4-PBA has been show to restore transportation of G544V-mutant human LDL receptor to the plasma membrane (Tveten et al. (2007)).
CHO cells expressing G544V-mutant LDL receptor were incubated with the indicated concentrations of 4-PBA analogs for 2 hours at 37° C. Cell lysates were analyzed by immunoblotting for the appearance of 160 kDa mature glycosylated LDL receptor (labeling indicates the position of 160 kDa mature glycosylated and 120 kDa precursor forms of LDL receptor). Gamma correction was applied to the immunoblot images.

human Sec24a = biological target: T1, human Sec24a (Homo sapiens, UniProt O95486); experiment: Fluorescence polarization assay: displacement of 5-Fam-[…] from Sec24a; assay type: binding; settings: fluorescence polarization at 22° C.; value ± standard error; read-out: IC50, displacement of fluorescent probe 5-Fam-QIYTDIEANR from Sec24a
T1 construct: His6 (TEV-cleavable) (N, cleaved yes); made in house; host or cells: High Five insect cells (baculovirus)
T1 sequence (O95486 341-1093): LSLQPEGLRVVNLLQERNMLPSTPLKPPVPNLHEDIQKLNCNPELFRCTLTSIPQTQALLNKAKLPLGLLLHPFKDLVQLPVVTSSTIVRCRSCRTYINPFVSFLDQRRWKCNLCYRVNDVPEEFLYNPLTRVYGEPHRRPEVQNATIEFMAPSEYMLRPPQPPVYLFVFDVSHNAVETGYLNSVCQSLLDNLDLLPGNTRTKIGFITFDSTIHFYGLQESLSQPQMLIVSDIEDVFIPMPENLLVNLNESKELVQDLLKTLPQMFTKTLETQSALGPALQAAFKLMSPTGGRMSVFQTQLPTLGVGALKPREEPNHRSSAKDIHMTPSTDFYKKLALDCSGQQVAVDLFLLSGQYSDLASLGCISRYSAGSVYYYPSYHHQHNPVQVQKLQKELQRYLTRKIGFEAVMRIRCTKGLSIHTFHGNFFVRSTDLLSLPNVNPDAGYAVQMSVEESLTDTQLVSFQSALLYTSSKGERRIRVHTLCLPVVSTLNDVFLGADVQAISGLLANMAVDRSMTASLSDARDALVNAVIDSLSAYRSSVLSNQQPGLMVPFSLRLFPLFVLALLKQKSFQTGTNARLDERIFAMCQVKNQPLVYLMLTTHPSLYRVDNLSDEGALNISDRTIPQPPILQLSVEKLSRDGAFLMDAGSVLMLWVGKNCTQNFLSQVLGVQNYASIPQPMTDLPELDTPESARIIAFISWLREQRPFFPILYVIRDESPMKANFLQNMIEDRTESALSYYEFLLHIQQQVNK

[2] = biological target: T2, COPII coat proteins (Sec23a/24d) (Homo sapiens, UniProt O94855); experiment: In vitro COPII budding assay with permeabilized CHO cells; assay type: biochemical, H. sapiens; settings: 10 mM 4-PBA
T2 construct: Sec23a/Sec24d (full-length protein) for COPII budding assays; made in house; host or cells: High Five insect cells (Sec23a/24d, Sec13a/31a); E. coli BL21(DE3) (Sar1a); added to digitonin-permeabilized T-Rex-CHO-K1 cells
T2 sequence (O94855 whole entry): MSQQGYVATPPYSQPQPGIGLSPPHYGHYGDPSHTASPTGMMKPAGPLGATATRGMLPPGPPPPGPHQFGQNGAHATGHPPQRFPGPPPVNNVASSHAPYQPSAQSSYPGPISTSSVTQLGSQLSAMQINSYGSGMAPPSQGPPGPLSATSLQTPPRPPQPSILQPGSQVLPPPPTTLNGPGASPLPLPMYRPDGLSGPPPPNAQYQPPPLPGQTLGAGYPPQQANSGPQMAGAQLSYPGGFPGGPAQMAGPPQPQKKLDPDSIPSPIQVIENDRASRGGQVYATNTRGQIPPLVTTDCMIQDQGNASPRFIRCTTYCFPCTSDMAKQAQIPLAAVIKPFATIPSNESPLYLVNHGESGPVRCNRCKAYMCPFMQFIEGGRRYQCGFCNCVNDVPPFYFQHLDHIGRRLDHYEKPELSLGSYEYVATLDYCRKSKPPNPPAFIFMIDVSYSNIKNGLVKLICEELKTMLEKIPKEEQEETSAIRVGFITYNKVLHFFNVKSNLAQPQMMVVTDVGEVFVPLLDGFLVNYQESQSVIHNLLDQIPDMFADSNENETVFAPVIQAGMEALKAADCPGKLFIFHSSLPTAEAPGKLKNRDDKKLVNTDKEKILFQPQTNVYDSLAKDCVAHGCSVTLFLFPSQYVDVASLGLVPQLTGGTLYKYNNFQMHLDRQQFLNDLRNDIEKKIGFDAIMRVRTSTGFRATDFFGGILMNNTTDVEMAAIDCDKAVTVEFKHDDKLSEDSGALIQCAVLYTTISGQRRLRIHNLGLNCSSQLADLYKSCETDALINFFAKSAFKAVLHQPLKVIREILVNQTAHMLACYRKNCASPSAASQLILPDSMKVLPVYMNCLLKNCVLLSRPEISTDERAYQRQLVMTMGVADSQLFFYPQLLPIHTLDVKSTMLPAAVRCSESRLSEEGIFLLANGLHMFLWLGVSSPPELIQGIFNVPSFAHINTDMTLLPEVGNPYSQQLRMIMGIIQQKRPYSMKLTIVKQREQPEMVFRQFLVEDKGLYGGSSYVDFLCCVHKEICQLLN
T2 sequence (Q15436 whole entry partner): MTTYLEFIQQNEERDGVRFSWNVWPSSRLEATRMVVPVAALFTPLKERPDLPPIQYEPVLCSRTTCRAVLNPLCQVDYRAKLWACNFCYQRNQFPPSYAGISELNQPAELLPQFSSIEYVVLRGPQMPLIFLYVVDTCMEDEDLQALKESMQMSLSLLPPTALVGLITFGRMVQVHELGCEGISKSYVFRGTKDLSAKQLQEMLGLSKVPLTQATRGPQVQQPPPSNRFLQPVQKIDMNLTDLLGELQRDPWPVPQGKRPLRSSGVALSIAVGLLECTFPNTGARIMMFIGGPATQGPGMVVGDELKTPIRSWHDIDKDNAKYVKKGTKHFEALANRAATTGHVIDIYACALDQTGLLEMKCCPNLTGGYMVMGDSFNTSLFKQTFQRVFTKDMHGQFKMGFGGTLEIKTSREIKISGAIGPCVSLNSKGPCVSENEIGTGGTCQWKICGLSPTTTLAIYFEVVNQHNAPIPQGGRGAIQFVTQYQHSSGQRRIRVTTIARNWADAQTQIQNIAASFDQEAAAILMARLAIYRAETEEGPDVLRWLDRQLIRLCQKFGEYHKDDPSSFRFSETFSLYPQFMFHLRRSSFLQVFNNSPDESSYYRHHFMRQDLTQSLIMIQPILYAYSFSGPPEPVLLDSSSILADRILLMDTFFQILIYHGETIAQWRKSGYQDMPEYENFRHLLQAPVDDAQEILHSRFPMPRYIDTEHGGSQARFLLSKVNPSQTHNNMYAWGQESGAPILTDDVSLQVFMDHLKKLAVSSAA
Description: In vitro COPII budding reactions used permeabilized cells prepared from the T-Rex-CHO-K1 parent line and from the clone that expresses mutant LDL receptor. Permeabilization was carried out as described in Mancias and Goldberg (2008) with modifications. Two culture dishes (150 mm) of cells were prepared with cells at no greater than 60% confluence. Cells were washed with 20 ml PBS at 37° C. and then trypsinized with 2 ml of Trypsin-EDTA (0.05%, Gibco) for 1 min at 37° C.; 100 μl of Soybean Trypsin Inhibitor (2 mg/ml; Sigma) was added to each culture plate. Next, 5.5 ml ice-cold KHM buffer (110 mM KOAc, 20 mM Hepes pH 7.2, 2 mM magnesium acetate) was added per plate, and cells were transferred to a 15 ml Falcon tube and pelleted gently (250 g for 3 min at 4° C.). The supernatant was aspirated and the cells re-suspended in 6 ml ice-cold KHM buffer. To permeabilize the cells, 6 μl digitonin stock solution (40 mg/ml in dimethyl sulfoxide) was added, cells were mixed by inversion and incubated on ice for 5 minutes. To terminate permeabilization, cells were diluted to 14 ml with KHM buffer and immediately pelleted at 250 g for 3 min at 4° C. […] The protein concentration was measured using protein assay kit (Bio-Rad) with BSA as standard; routinely, the measurement is in the range 4-5 mg/ml. […]

GRP94 = assay type: cell-based
Description: as §1
[…] The presence of KDEL tagged (SEQ ID NO: 3) luminal chaperone GRP94 inside and outside cells was measured.

Sec23a/Sec24a⋅Sec22b = biological target: T3, Sec23a/Sec24a⋅Sec22b (Homo sapiens, UniProt O95486); experiment: Crystal soaking and X-ray difference Fourier maps; assay type: binding; settings: crystals soaked at 1, 15 and 50 mM 4-PBA
T3 construct: His6 (TEV-cleavable) (N, cleaved yes); made in house; host or cells: High Five insect cells (Sec23a/Sec24a); E. coli (Sec22b)
T3 sequence (Q15436 whole entry partner, one chain of several): as the sequence (Q15436 whole entry partner) above
T3 sequence (O75396 1-195 partner limits assumed, one chain of several): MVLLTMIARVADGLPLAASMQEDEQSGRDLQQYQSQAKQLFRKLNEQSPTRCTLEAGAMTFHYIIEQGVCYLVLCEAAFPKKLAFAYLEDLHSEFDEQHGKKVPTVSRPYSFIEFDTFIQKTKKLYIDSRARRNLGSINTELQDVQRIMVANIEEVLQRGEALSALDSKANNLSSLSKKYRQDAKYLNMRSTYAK
Description: The Sec23a/Sec24a⋅Sec22b complex was crystallized as described in Mancias and Goldberg (2007) from a solution comprising 10% (w/v) PEG 4000, 500 mM Na acetate and 50 mM Tris-HCl pH 7.9. Crystals were transferred into a soaking buffer of 10% (w/v) PEG 4000, 600 mM NaCl, 50 mM Tris-HCl buffer, pH 7.9. Either 4-PBA (0-50 mM) or 5 mM ΦC signal peptide was added to the crystal containing solution, and the ligand soaking proceeded for five hours at 22° C. Crystals were then transferred to an equivalent ligand-containing buffer with additional 24% ethylene glycol cryo-protectant, and were flash frozen in liquid nitrogen. Crystals treated in this manner diffracted synchrotron X-rays to 2.5-2.8 Å resolution.
X-ray diffraction data were collected at 0.979 Å wavelength on beamline ID-24C or ID-24E of the Advanced Photon Source, Argonne National Laboratory. Data were processed with the program HKL2000 (Otwinowski and Minor (1997); see Tables 1 and 2). Structure refinement was carried out using Phenix (Adams et al. (2010)), initially by rigid-body improvement, followed by positional refinement, based on the published coordinates of Sec23a/Sec24a⋅Sec22b (PDB 2NUT; Mancias and Goldberg (2007)). Models for […] signal peptides or 4-PBA were not included in refinements prior to the creation of FIG. 1, to eliminate potential phase bias. […]

O=C(O)CCCc1ccccc1 [4-PBA, 4-phenylbutyrate]
restored trafficking of mutant LDL receptor (share of the receptor) ([1]; 10 mM 4-PBA applied to cells): ≤ 25%
EC50 [1]: 6.37 mM and 6.4 mM
IC50 (human Sec24a): 3.66 ± 0.22 mM
packaging of ER residents and mutant LDL receptor into COPII vesicles [2]: significant enrichment
reduction in the packaging rate of p24 proteins and ERGIC-53 [2]: 50%
secretion of GRP94 from CHO cells (GRP94; 0-40 mM 4-PBA, 24 hours): dose-dependent
cell lysis (GRP94; 45 mM 4-PBA, highest concentration): cell lysis was detected
4-PBA concentration of maximal GRP94 secretion (GRP94; 24 hours at 37° C., ER stressed and ER unstressed CHO cells): 20 mM
4-PBA concentration at which unfolded protein response (UPR) was attenuated (GRP94; CHO cells expressing G544V-mutant LDL receptor, 24 hours at 37° C.): 10 to 20 mM
binding to the B site of Sec24a (Sec23a/Sec24a⋅Sec22b): clear evidence for binding

O=C(O)CCCCc1ccccc1 [5-PVA, 5-phenylvalerate]
EC50 [1]: 3.36 ± 0.42 mM
IC50 (human Sec24a): 0.99 ± 0.08 mM

Cc1ccc(CCCC(=O)O)cc1 [Tolyl-BA, 4-(4-tolyl)butyrate]
EC50 [1]: 4.89 ± 0.24 mM
IC50 (human Sec24a): 1.7 ± 0.16 mM

O=C(O)CCc1ccccc1 [3-PPA, 3-phenylpropionate]
EC50 [1]: 7.48 ± 0.68 mM
IC50 (human Sec24a): 4.11 ± 0.34 mM

COc1ccc(CCCC(=O)O)cc1 [Methoxy-PBA, 4-(4-methoxyphenyl)butyrate]
EC50 [1]: 8.63 ± 0.98 mM
IC50 (human Sec24a): 4.14 ± 0.7 mM

O=C(O)CCCc1ccc(O)cc1 [Hydroxy-PBA, 4-(4-hydroxyphenyl)butyrate]
EC50 [1]: 10.6 ± 0.4 mM
IC50 (human Sec24a): 5.04 ± 0.69 mM

O=C(O)CCc1ccc(O)cc1 [Hydroxy-PPA, 3-(4-hydroxyphenyl)propionate]
EC50 [1]: 21.7 ± 1.03 mM
IC50 (human Sec24a): 9.22 ± 0.94 mM
